Patent US20100240537A1, “Substituted 6-(alkylbenzylamino)purine derivatives for use as cytokinin receptor antagonists and preparations containing these derivatives” (priority 2007, published 2010)

Tests used:
[1] = tested on: wild-type Arabidopsis seeds; experiment: Germination of Arabidopsis seeds; assay type: in vivo
Method: Early germination of wild-type Arabidopsis seeds cultivated on MS medium containing indicated concentrations of compound 8 after replacement from dark to white light (16 h light/8 hours dark).
Subsequent testing confirmed positive effect of the compound 8 on germination. After sowing and pretreatment in dark at 4° C., seeds were transferred to light and ambient temperature. After 30 hours more than 60% of seeds sown on medium containing 1 nM compound 8 were germinating, which was twice as much as in the case of control sown on compound 8 free medium. The number of germinating seeds was further enhanced with higher concentration of compound 8 and 80% of seeds were germinated when 10 nM compound 8 was present in the medium (FIG. 6).

[2] = tested on: Arabidopsis seedlings (wild-type, receptor double mutants); experiment: Primary root length of Arabidopsis seedlings; assay type: in vivo; conditions: 1 μM
Method: FIG. 5 Effect of compound 8 on primary root length of Arabidopsis seedlings. Increase in the length of the primary roots observed in ahk2 ahk3 double mutant seedlings (6 DAG) grown on medium containing 1 μM compound 8.
However, when 1 μM compound 8 was applied to the growth media of ahk2 ahk3 double mutants, significant increase (about 15%) in the length of the primary roots was observed compared to untreated control (FIG. 5).

[3] = tested on: A. thaliana wild-type and double receptor mutant seedlings; experiment: Lateral root formation of Arabidopsis seedlings; assay type: in vivo, Arabidopsis thaliana; conditions: 1 and 5 nM BA alone, MS medium
Method: (A) Number of lateral roots formed by wild-type Arabidopsis seedlings (11 DAG)—from left: DMSO control, formation in the presence of cytokinin BA, or compound 8, and antagonism when both compounds were added. (B) Increase in number of lateral roots found with WT and double-receptor mutant seedlings grown on medium containing compound 8.
Cytokinins are known as negative regulators of root growth and development. We grew A. thaliana wild-type and double receptor mutant seedlings with decreased perception of cytokinins on MS medium containing either 1 and 5 nM cytokinin BA to confirm the cytokinin inhibitory effect on initiation of lateral roots, or 1 and 10 nM compound 8, or combination of these substances in concentrations indicated in FIG. 4A.

Row | Structure (SMILES) | germinating seeds ([1]; 1 nM in medium, after 30 hours in light) | germinated seeds ([1]; 10 nM in medium) [%] | increase in the length of the primary roots compared to untreated control ([2]; ahk2 ahk3 double mutants, 6 DAG) | formation of lateral roots [3] | elongation of the primary root, wild-type seedlings ([2]; wild-type)
1 | Cc1cccc(CNc2ncnc3nc[nH]c23)c1O [Compound 8, 6-(2-hydroxy-3-methylbenzylamino)purine] | more than 60% | 80 | about 15% |  | 
2 | c1ccc(CNc2ncnc3nc[nH]c23)cc1 [6-(benzylamino)purine] |  |  |  | inhibited formation of lateral roots | almost completely inhibited
